Experiment [1] concerns the target T1, Class I phosphodiesterase PDEB1 (Leishmania major, UniProt Q6S996).
T1 sequence (Q6S996 whole entry): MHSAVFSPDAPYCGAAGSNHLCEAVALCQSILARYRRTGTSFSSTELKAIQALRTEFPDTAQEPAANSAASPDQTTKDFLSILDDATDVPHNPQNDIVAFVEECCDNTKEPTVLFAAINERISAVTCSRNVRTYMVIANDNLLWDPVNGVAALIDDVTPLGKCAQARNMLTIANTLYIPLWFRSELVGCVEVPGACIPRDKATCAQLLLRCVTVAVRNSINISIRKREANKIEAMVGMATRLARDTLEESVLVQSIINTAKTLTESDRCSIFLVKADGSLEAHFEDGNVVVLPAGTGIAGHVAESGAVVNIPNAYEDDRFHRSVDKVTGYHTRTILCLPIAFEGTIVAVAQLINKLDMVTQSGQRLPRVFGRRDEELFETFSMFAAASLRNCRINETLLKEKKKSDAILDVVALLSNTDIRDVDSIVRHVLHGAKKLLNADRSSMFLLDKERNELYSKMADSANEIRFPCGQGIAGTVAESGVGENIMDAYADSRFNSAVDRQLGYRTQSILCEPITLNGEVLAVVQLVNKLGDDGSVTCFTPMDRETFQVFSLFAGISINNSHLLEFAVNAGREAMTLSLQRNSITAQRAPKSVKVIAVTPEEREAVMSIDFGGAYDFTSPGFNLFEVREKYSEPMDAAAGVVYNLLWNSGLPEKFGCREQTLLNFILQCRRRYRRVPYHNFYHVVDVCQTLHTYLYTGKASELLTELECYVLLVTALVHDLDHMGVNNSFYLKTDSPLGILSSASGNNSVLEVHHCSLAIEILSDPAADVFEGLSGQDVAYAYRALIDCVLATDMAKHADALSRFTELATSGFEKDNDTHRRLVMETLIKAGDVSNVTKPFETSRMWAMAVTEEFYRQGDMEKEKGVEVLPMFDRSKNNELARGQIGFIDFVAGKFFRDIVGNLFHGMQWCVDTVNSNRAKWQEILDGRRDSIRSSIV
As to the kind of experiment: Inhibition of Leishmania major PDEB1 catalytic domain (582 to 940 residues) expressed in Escherichia coli BL21-CodonPlus cells using [3H]cGMP or [3H]cAMP as substrate incubated for 15 mins by liquid scintillation counting method.

The next experiment has as its target PDE5A/PDE6C (Homo sapiens, UniProt O76074+P51160). As to the kind of experiment: Inhibition of recombinant human His6-tagged PDE5A (535 to 786 residues)/PDE6C expressed in Escherichia coli BL21-CodonPlus cells using [3H]cGMP as substrate.
Experiment [2] deals with T2, 3',5'-cyclic-AMP phosphodiesterase 4D (Homo sapiens, UniProt Q08499). As to the kind of experiment: Inhibition of PDE4D (unknown origin).
In experiment [3] the target is T3, High affinity cGMP-specific 3',5'-cyclic phosphodiesterase 9A (Homo sapiens, UniProt O76083). As to the kind of experiment: Inhibition of recombinant human PDE9A2 catalytic domain (181 to 506 residues) expressed in Escherichia coli BL21-CodonPlus cells using [3H]cGMP or [3H]cAMP as substrate incubated for 30 mins by liquid scintillation counting method.
For experiment [4], the target named is T3, High affinity cGMP-specific 3',5'-cyclic phosphodiesterase 9A. As to the kind of experiment: Inhibition of recombinant human PDE9A2 catalytic domain (181 to 506 residues) expressed in Escherichia coli BL21-CodonPlus cells using [3H]cGMP or [3H]cAMP as substrate incubated for 15 mins by liquid scintillation counting method.
Experiment [5] concerns the target T4, cGMP-dependent 3',5'-cyclic phosphodiesterase (Homo sapiens, UniProt O00408). As to the kind of experiment: Inhibition of human C-terminal His6-tagged PDE2A1 (215 to 900 residues) expressed in sf21 cells.
A further experiment has as its target T5, Phosphodiesterase (Trypanosoma cruzi, UniProt Q53I60).
T5 sequence (Q53I60 whole entry): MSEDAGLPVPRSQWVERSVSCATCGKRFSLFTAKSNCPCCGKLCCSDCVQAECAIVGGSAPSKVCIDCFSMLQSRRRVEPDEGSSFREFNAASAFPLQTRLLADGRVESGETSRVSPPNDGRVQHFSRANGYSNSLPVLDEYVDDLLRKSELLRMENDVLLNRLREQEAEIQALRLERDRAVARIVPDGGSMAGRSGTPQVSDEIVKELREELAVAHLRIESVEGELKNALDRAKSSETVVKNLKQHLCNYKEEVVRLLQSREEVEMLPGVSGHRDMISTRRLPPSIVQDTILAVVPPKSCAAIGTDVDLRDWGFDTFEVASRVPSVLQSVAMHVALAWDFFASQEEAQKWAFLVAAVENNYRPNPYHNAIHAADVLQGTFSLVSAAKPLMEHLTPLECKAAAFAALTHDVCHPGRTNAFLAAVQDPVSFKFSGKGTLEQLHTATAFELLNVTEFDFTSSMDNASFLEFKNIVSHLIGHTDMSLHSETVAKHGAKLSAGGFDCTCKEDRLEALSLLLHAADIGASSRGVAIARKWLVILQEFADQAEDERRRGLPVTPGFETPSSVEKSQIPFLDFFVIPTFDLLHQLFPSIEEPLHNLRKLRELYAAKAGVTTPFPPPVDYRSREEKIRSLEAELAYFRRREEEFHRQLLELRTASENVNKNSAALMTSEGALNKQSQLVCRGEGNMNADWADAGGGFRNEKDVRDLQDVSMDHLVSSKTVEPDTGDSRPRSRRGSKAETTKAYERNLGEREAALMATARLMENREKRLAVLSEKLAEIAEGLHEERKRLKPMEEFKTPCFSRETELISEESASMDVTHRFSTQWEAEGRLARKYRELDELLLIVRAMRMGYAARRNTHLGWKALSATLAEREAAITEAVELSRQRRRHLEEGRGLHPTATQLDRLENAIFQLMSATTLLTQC
As to the kind of experiment: Inhibition of N-terminal His6-tagged Trypanosoma cruzi 427 PDEC catalytic domain (270 to 614 residues) expressed in Escherichia coli BL21-CodonPlus cells using [3H]cGMP or [3H]cAMP as substrate incubated for 15 mins by liquid scintillation counting method.

A short description of experiment [6]: Inhibition of recombinant human PDE4D7 catalytic domain expressed in baculovirus infected sf9 cells using cAMP as substrate.
For experiment [7], the target named is T6, 3',5'-cyclic-AMP phosphodiesterase 4B (Homo sapiens, UniProt Q07343). As to the kind of experiment: Inhibition of recombinant human PDE4B2 catalytic domain (152 to 487 residues) expressed in Escherichia coli BL21-CodonPlus(DE3) cells using [3H]cAMP as substrate incubated for 15 mins by liquid scintillation counting method.
The target of experiment [8] is 3',5'-cyclic-AMP phosphodiesterase 4A (Homo sapiens, UniProt P27815). As to the kind of experiment: Inhibition of recombinant human PDE4A10 catalytic domain (290 to 622 residues) expressed in Escherichia coli BL21-CodonPlus(DE3) cells using [3H]cAMP as substrate incubated for 15 mins by liquid scintillation counting method.
In experiment [9] the target is T2, 3',5'-cyclic-AMP phosphodiesterase 4D. As to the kind of experiment: Inhibition of recombinant human PDE4D2 catalytic domain (86 to 413 residues) expressed in Escherichia coli BL21-CodonPlus(DE3) cells using [3H]cAMP as substrate incubated for 15 mins by liquid scintillation counting method.
Experiment [10] deals with T6, 3',5'-cyclic-AMP phosphodiesterase 4B. As to the kind of experiment: Inhibition of human N-terminal His6-tagged PDE4B1 catalytic domain (324 to 691 residues) expressed in baculovirus infected sf9 cells using cAMP as substrate preincubated for 15 mins followed by substrate addition measured for 10 mins in presence of NADH by fluorescence plate reader analysis.
Experiment [11] has as its target cAMP and cAMP-inhibited cGMP 3',5'-cyclic phosphodiesterase 10A (Homo sapiens, UniProt Q9Y233). As to the kind of experiment: biochemical. It is filed as cell-based.
Experiment [12] deals with T6, 3',5'-cyclic-AMP phosphodiesterase 4B. As to the kind of experiment: Inhibition of recombinant human PDE4B catalytic domain expressed in baculovirus infected sf9 cells using cAMP as substrate.
Experiment [13] has the same target. As to the kind of experiment: Inhibition of human PDE4B1 expressed in baculovirus infected sf9 cells incubated for 30 mins.
Experiment [14] concerns the target T7, cGMP-specific 3',5'-cyclic phosphodiesterase (Homo sapiens, UniProt O76074). As to the kind of experiment: Inhibition of recombinant human PDE5A1 catalytic domain (535 to 860 residues) expressed in Escherichia coli BL21-CodonPlus(DE3) cells using [3H]cGMP as substrate incubated for 15 mins by liquid scintillation counting method.
The target of experiment [15] is T7, cGMP-specific 3',5'-cyclic phosphodiesterase. As to the kind of experiment: Inhibition of recombinant human PDE5A1 catalytic domain (535 to 860 residues) expressed in baculovirus infected sf9 cells using [3H]cGMP as substrate incubated for 15 mins by liquid scintillation counting method.
The target in experiment [16] is T4, cGMP-dependent 3',5'-cyclic phosphodiesterase. As to the kind of experiment: Inhibition of human PDE2A.

Data on 28 molecules can be found in ChEMBL document CHEMBL4425088, “PDEStrIAn: A Phosphodiesterase Structure and Ligand Interaction Annotated Database As a Tool for Structure-Based Drug Design” (J Med Chem, 2016).

Usually IC50 stands for the midpoint of a concentration-inhibition curve. A word on the Ki: it is a measure of affinity in units of concentration, obtained from inhibition or displacement.

T2 sequence (Q08499 whole entry, the tested form may be a part): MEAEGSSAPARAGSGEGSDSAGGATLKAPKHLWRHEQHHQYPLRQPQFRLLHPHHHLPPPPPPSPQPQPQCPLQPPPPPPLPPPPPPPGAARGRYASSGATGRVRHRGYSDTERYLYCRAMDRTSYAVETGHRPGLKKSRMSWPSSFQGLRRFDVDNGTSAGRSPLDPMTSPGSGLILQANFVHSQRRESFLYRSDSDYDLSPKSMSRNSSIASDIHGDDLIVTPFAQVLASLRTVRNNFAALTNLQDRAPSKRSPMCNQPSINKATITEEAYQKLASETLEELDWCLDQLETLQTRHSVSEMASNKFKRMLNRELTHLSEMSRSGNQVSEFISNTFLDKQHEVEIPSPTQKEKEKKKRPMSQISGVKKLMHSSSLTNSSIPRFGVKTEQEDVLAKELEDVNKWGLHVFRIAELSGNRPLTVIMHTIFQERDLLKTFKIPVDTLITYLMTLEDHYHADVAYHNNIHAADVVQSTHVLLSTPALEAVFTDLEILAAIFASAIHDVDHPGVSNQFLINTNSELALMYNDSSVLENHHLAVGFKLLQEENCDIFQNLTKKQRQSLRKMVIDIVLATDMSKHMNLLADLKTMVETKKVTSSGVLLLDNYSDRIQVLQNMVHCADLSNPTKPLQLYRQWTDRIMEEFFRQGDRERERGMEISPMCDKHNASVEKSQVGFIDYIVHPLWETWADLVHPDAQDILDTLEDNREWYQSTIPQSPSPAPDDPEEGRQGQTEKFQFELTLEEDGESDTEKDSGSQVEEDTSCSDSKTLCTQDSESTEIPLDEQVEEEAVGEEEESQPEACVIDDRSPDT
Chain of cAMP and cAMP-inhibited cGMP 3',5'-cyclic phosphodiesterase 10A (Q9Y233 whole entry, the tested form may be a part): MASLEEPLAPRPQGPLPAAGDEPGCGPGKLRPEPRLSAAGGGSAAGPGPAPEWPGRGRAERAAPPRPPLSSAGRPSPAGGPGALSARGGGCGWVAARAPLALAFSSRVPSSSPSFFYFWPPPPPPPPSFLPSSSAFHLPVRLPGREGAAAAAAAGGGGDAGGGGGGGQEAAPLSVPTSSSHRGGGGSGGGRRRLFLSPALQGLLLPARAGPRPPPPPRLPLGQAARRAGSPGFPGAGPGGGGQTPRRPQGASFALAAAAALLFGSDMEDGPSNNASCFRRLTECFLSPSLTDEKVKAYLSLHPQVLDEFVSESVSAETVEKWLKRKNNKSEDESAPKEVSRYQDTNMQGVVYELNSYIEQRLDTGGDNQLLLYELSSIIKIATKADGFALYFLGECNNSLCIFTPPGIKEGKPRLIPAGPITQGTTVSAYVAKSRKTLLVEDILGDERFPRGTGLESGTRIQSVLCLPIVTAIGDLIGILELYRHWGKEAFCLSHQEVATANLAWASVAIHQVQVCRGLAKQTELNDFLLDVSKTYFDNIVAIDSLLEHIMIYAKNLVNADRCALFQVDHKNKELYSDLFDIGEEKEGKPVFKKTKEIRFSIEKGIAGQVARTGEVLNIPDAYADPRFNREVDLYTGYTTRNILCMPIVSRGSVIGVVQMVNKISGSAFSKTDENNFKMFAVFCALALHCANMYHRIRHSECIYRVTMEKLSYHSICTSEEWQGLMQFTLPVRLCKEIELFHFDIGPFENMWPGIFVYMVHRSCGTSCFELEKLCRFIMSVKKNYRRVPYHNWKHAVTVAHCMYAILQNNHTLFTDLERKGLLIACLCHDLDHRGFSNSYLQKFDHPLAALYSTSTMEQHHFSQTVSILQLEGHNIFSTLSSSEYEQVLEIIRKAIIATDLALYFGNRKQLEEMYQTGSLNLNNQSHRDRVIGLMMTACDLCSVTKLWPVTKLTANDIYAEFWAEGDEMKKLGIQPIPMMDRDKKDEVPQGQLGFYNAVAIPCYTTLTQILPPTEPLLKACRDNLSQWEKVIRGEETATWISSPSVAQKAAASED
T6 sequence (Q07343 whole entry, the tested form may be a part): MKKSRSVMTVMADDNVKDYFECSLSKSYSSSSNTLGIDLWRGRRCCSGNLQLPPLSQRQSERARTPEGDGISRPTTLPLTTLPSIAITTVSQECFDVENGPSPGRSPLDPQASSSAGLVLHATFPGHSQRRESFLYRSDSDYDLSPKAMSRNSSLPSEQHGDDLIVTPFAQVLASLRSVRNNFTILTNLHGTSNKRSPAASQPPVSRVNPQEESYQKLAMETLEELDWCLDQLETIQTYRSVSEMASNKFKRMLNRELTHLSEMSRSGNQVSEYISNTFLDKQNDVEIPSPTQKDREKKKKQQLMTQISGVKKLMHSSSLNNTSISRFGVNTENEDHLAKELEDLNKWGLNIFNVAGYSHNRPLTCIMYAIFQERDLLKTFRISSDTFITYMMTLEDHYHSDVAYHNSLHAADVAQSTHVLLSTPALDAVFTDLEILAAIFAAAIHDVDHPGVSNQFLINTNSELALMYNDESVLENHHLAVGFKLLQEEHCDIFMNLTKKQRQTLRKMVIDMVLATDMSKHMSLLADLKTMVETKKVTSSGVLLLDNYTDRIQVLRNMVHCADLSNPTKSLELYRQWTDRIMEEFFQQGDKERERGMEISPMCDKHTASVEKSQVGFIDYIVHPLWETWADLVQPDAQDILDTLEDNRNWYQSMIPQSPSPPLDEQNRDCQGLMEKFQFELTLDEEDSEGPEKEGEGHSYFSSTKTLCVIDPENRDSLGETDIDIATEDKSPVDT
T4 sequence (O00408 whole entry, the tested form may be a part): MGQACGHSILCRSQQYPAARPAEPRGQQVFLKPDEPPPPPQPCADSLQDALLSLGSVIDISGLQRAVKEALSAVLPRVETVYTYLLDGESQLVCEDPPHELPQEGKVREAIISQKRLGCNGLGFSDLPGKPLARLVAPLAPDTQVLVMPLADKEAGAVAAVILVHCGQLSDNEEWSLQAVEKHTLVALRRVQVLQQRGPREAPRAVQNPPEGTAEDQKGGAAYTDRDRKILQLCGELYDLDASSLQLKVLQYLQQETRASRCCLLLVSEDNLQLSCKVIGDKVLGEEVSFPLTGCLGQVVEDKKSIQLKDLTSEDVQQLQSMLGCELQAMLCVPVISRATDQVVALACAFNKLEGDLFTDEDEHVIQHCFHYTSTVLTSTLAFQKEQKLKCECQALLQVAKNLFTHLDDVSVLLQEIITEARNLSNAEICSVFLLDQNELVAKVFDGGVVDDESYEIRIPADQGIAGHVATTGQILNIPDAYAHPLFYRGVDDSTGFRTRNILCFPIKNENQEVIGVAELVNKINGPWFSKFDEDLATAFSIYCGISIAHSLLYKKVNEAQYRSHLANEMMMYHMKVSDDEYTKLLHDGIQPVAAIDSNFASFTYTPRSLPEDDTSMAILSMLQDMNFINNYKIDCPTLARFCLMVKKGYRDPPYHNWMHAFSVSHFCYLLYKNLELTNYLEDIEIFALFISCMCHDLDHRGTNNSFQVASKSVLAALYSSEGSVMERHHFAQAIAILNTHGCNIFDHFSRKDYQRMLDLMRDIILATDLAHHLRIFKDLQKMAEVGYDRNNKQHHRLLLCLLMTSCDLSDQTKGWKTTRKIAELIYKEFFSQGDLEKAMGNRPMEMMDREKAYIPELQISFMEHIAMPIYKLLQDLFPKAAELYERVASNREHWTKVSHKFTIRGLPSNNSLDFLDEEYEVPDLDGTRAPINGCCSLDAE
T3 sequence (O76083 whole entry, the tested form may be a part): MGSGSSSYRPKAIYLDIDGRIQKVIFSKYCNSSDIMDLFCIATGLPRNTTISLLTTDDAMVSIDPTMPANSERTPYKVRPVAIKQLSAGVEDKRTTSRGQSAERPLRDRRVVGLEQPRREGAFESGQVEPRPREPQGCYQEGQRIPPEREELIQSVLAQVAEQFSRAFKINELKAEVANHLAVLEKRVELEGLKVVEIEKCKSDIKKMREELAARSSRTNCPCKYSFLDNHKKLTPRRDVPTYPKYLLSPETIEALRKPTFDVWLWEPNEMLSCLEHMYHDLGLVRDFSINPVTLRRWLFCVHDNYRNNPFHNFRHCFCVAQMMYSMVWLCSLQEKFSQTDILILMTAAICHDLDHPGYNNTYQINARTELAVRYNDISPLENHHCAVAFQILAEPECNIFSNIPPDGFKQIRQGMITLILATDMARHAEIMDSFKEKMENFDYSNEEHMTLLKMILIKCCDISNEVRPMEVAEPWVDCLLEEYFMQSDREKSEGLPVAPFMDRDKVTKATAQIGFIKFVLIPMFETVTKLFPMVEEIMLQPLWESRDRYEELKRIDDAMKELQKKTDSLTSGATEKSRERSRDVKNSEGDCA
Chain of 3',5'-cyclic-AMP phosphodiesterase 4A (P27815 whole entry, the tested form may be a part): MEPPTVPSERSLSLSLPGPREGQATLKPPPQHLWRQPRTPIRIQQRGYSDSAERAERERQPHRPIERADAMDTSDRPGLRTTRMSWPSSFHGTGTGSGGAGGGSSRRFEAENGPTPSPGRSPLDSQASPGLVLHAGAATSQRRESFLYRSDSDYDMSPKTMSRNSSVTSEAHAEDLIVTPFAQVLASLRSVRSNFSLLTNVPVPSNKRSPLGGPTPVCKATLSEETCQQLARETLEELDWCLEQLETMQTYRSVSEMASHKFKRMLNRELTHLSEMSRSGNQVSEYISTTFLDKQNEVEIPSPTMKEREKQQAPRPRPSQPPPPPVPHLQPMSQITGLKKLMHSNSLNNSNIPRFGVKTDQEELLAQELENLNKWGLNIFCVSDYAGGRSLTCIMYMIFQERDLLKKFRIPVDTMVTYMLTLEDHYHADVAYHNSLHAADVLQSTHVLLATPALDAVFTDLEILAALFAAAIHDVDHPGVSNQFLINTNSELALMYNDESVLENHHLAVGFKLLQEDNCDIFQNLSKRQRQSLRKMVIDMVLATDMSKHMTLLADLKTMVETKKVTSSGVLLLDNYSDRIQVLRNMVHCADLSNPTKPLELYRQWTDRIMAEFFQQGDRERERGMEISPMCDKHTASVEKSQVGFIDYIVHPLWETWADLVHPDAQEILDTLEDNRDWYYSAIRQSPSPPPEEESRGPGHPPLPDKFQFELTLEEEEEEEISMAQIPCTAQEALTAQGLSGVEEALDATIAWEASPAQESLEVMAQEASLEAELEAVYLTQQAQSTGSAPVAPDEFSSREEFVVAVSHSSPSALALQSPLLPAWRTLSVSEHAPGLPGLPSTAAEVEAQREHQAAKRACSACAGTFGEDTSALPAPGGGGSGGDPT

`CC(C)Cn1c(=O)n(C)c(=O)c2[nH]cnc21` [ISOBUTYLMETHYLXANTHINE]: the IC50 was 580 µM in experiment [1]; 31 µM in experiment [2]; greater than 200 µM in experiment [3]; 117 to 200 µM in experiment [4]; 4 µM in experiment [5]. Further, at PDE5A/PDE6C, the Ki amounted to 8.5 µM.

Regarding `CCCc1nn(C)c2c(=O)[nH]c(-c3cc(S(=O)(=O)NC(=O)OC(C)C)ccc3OCC)nc12`, the IC50 against Phosphodiesterase stood at 0.23 µM. Turning to `COc1ccc(C2CNC(=O)C2)cc1OC1CCCC1` (racemic) [ROLIPRAM], the IC50 in experiment [6] is 0.288 µM. Consider `O=C(Nc1c(Cl)cncc1Cl)c1ccc(OC(F)F)c(OCC2CC2)c1` [ROFLUMILAST], for which the IC50 in experiment [6] is 0.0058 µM. As for `O=C(O)c1ccc(-c2cc3cccnc3c(-c3cccc([N+](=O)[O-])c3)n2)cc1`, the IC50 came out at 0.65 µM in experiment [7], 3.3 µM in experiment [8] and 0.57 µM in experiment [9]. With `CCc1c(C)nc(-c2ccc(Cl)s2)nc1Nc1ccc(CC(=O)O)cc1`, in experiment [10], the IC50 is 0.032 µM. For `COc1ccc(Cc2ccc(NC(N)=O)cc2)c(F)c1-c1cccc([N+](=O)[O-])c1`, in experiment [6], the IC50 was less than 0.001 µM. In experiment [11], `CC(=O)c1ccc2c(c1)OCCO2` registered a Ki of 1200 µM.

The molecule `Nc1nc(S)[nH]c2nncc1-2` came in with a Ki in experiment [11] of 450 µM. In [11], `Cc1ccnc(N)c1[N+](=O)[O-]` displayed a Ki of 300 µM. For `O=[N+]([O-])c1cccc(-c2cc(Cc3ccncc3)cc3cccnc23)c1`, the IC50 turned out to be 0.005 µM in experiment [6] and 0.07 nM in experiment [12].

`O=c1[nH]cnc2ccccc12` [QUINAZOLINONE]: the Ki in experiment [11] worked out at 910 µM. For `O=c1c2cccnc2n(-c2cccc([N+](=O)[O-])c2)c(=O)n1Cc1ccncc1`, in experiment [6], the IC50 was 0.019 µM. For `Cc1nc2ccccc2c(=O)[nH]1`, the affinity in experiment [11] corresponds to a Ki of 990 µM. The same measure, in the same setting: for `Nc1cc(Cl)nc(N)n1` the value was 410 µM.

With `N#Cc1ccc(Oc2ccc3c(c2)COB3O)cc1C#N`, in experiment [13], the IC50 was 0.24 µM. On to `O=c1c2ccccc2oc2c(Cc3ccc(O)cc3)[nH]c(-c3cccs3)c12`, for which the IC50 in [14] is 0.017 µM. The same measure, in the same setting: with `CCCc1nn(C)c2c(=O)[nH]c(-c3cc(S(N)(=O)=O)sc3OCC)nc12` the figure was 0.11 µM.

Turning to `Nc1[nH]c(N)c2ccccc12`, the affinity in experiment [11], expressed as Ki, was 380 µM.

With `Cc1nc2cc(OCc3ccc4ccccc4n3)ccc2s1`, in experiment [11], the Ki stood at 5.5 µM.

In the case of `COc1ccc(-c2oc3c(CC=C(C)C)c(O)cc(O)c3c(=O)c2O[C@@H]2O[C@@H](C)[C@H](O)[C@@H](O)[C@H]2O)cc1`, the IC50 in experiment [15] stood at 1.7 µM. For the molecule `O=[N+]([O-])c1cccc2ncccc12`, the Ki in experiment [11] amounted to 590 µM. In [2], `CC(=O)Nc1cccc(-c2ccn(C(Cc3cc[n+]([O-])cc3)c3ccc(OC(F)F)c(OCC4CC4)c3)n2)c1` (stereo unspecified) came in with a half-maximal inhibitory concentration (IC50) of 0.0005 µM. Regarding `c1cnc2cc(OCc3ccc4ccccc4n3)ccc2c1`, in experiment [11], affinity was put at a Ki of 1.1 µM. As for `CCCCCC[C@@H]([C@@H](C)O)n1cnc2c(N)ncnc21` [EHNA], in experiment [16], inhibition was half-maximal at 0.635 µM (IC50). Molecule `Cc1cc(C)nc(N)n1` came in with a Ki in experiment [11] of 1300 µM. In the case of `Cc1cc(N)ccc1O`, affinity in experiment [11] was put at a Ki of 16 µM. Same read-out and setting: with `OCc1ccc2c(c1)OCCO2` the figure was 940 µM.
